Results published in patent US20250332173A1, “COMPOUNDS AND METHODS FOR MODULATING NUCLEIC ACID SPLICING” (REMIX THERAPEUTICS INC., priority 2021, published 2025).
Like-named read-outs stand apart in the source and are kept apart here.

How the values were obtained:
MYB mRNA = test: RT-qPCR splicing assay, MYB canonical junction (CJ) and alternative junction (AJ) mRNA; assay type: cell-based, human; conditions: Homo sapiens; for AC50: increase in MYB alternative junction (AJ) mRNA, read-out: MYB AJ AC50
How it was run: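 Splicing switches were read by TaqMan RT-qPCR on lysates, quantifying exon-exon junctions of the canonical and alternative-exon isoforms. Lysates came from K562 (GAPDH/GUSB reference) or A673 (PPIA reference) cells exposed 24 h to compound in 11 threefold steps from 10 uM, with DMSO ≤0.25%.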

HTT = test: HiBiT protein abundance assay, HTT HiBiT K562 cell line; assay type: cell-based, human; conditions: HiBiT K562 cell line, 24 hours, top dose 10 μM; read-out: Effect on protein abundance, HTT (IC50 category)
How it was run: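 Tagged-protein abundance measured by split-NanoBiT luminescence after lysis, following 24 h compound exposure (37° C; 10 μM top, 3-fold, 10 points; DMSO ≤0.25%) of HiBiT knock-in K562 cells. Percent response vs DMSO and unmodified-cell controls; 4-parameter logistic interpolation at 50% gave IC50.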

[1] = Table 5 panel, canonical junction qPCR, compound concentration having 50% response in CJ decrease, read-out: MYB IC50 (decrease in CJ mRNA levels)
[2] = decrease in MYB canonical junction (CJ) mRNA, RT-qPCR, read-out: MYB CJ IC50

SMILES | IC50 (MYB mRNA; [1]) [nM] | IC50 (MYB mRNA; [2]) [nM] | IC50 (HTT) [nM] | AC50 (MYB mRNA; RT-qPCR) [nM]
Cc1cn2nc(-c3cc(N(C)C)c4c(=O)n(C5CCNC6(CC6)C5)cnc4c3)cc(C)c2n1 (stereo not drawn) [Compound 345] | < 100 | < 100 | > 10000 | < 100
Cc1cn2cc(-c3cc(F)c4c(=O)n([C@H]5CCNC[C@@H]5O)cnc4c3)cc(F)c2n1 [Compound 347, 5-fluoro-7-{8-fluoro-2-methylimidazo[1,2-a]pyridin-6-yl}-3-[(3S,4S)-3-hydroxypiperidin-4-yl]quinazolin-4-one] | 100 to 1000 | 1000 to 10000 | > 10000 | 1000 to 10000
Cc1cn2cc(-c3cc(F)c4c(=O)n([C@H]5CNCC[C@@H]5O)cnc4c3)cc(F)c2n1 [Compound 348, 5-fluoro-7-{8-fluoro-2-methylimidazo[1,2-a]pyridin-6-yl}-3-[(3S,4S)-4-hydroxypiperidin-3-yl]quinazolin-4-one] | > 10000 | > 10000 | > 10000 | > 10000
Cc1cn2nc(-c3ccc4c(=O)n([C@H]5CCNC6(CC6)C5)cnc4c3)cc(C)c2n1 [Compound 349, 3-[(7S)-4-azaspiro[2.5]octan-7-yl]-7-{2,8-dimethylimidazo[1,2-b]pyridazin-6-yl}quinazolin-4-one] | 100 to 1000 | 100 to 1000 | 100 to 1000 | 100 to 1000
Cc1cn2nc(-c3ccc4c(=O)n([C@@H]5CCNC6(CC6)C5)cnc4c3)cc(C)c2n1 [Compound 350, 3-[(7R)-4-azaspiro[2.5]octan-7-yl]-7-{2,8-dimethylimidazo[1,2-b]pyridazin-6-yl}quinazolin-4-one] | < 100 | < 100 | 100 to 1000 | < 100
Cc1cn2nc(-c3cc(F)c4c(=O)n(C5CCNC6(CC6)C5)cnc4c3)cc(C)c2n1 (stereo not drawn) [Compound 351] | < 100 | < 100 | < 100 | < 100
Cc1cn2cc(-c3cc(F)c4c(=O)n(C5CNCCC5=O)cnc4c3)cc(F)c2n1 (stereo not drawn) [Compound 352, 5-fluoro-7-{8-fluoro-2-methylimidazo[1,2-a]pyridin-6-yl}-3-(4-oxopiperidin-3-yl)quinazolin-4-one] | > 10000 | > 10000 | > 10000 | > 10000
Cc1ncc(-c2ccc3c(=O)n(C4CCNCC4)cnc3c2)cn1 [Compound 354, 7-(2-methylpyrimidin-5-yl)-3-(piperidin-4-yl)quinazolin-4(3H)-one] | 1000 to 10000 | 1000 to 10000 | 1000 to 10000 | 1000 to 10000
Cc1cc(-c2cc(F)c3c(=O)n(C4CCNC5(CC5)C4)cnc3c2)nc2cn(C)nc12 (stereo not drawn) [Compound 361, 3-{4-azaspiro[2.5]octan-7-yl}-7-{2,7-dimethylpyrazolo[4,3-b]pyridin-5-yl}-5-fluoroquinazolin-4-one] | < 100 | < 100 | < 100 | < 100

Further lines, with some results ahead:

IC50 (MYB mRNA; [1]) [nM] | IC50 (MYB mRNA; [2]) [nM] | IC50 (HTT) [nM] | SMILES | AC50 (MYB mRNA; RT-qPCR) [nM]
< 100 | < 100 | 100 to 1000 | Cc1cn2cc(-c3cc(F)c4c(=O)n([C@H]5CCN[C@H](C)C5)cnc4c3)cc(F)c2n1 [Compound 346, trans-5-fluoro-7-(8-fluoro-2-methylimidazo[1,2-a]pyridin-6-yl)-3-(2-methylpiperidin-4-yl)quina-zolin-4(3H)-one] | < 100
100 to 1000 | 100 to 1000 | 100 to 1000 | Cc1cn2cc(-c3cc(F)c4c(=O)n(C5CCCNCC5)cnc4c3)cc(F)c2n1 (stereo not drawn) [Compound 353, 3-(azepan-4-yl)-5-fluoro-7-{8-fluoro-2-methylimidazo[1,2-a]pyridin-6-yl}quinazolin-4-one] | 100 to 1000
< 100 | < 100 | < 100 | Cc1cn2nc(-c3cc(C)c4c(=O)n(C5CCNCC5)cnc4c3)cc(C)c2n1 [Compound 355] | < 100
100 to 1000 | < 100 | < 100 | Cc1cn2nc(-c3cc(F)c4c(=O)n([C@@H]5CCNC6(CC6)C5)cnc4c3)cc(C)c2n1 [Compound 356] | 100 to 1000
1000 to 10000 | 1000 to 10000 | 1000 to 10000 | CNc1cc(-c2cc(F)c3nc(C)cn3c2)cc2ncn(C3CCNCC3)c(=O)c12 [Compound 358, 7-{8-fluoro-2-methylimidazo[1,2-a]pyridine-6-yl}-5-(methylamino)-3-(piperidin-4-yl)quinazolin-4-one] | 1000 to 10000
< 100 | 1000 to 10000 | 100 to 1000 | CNc1cc(-c2cc(C)c3nc(C)cn3n2)cc2ncn(C3CCNCC3)c(=O)c12 [Compound 359, 7-{2,8-dimethylimidazo[1,2-b]pyridazin-6-yl}-5-(methylamino)-3-(piperidin-4-yl)quinazolin-4-one] | < 100
1000 to 10000 | > 10000 | > 10000 | CNc1cc(-c2cn3cc(C)nc3c(C)n2)cc2ncn(C3CCNCC3)c(=O)c12 [Compound 360, 7-{2,8-dimethylimidazo[1,2-a]pyrazine-6-yl}-5-(methylamino)-3-(piperidin-4-yl)quinazolin-4-one] | 1000 to 10000
1000 to 10000 | 1000 to 10000 | > 10000 | Cc1cn2nc(-c3cc(O)c4c(=O)n(C5CCNC5)cnc4c3)cc(C)c2n1 (stereo not drawn) [Compound 362, 7-{2,8-dimethylimidazo[1,2-b]pyridazin-6-yl}-5-hydroxy-3-(pyrrolidin-3-yl)quinazolin-4-one] | 1000 to 10000
> 10000 | > 10000 | > 10000 | CNc1cc(-c2cc(C#N)c3nc(C)cn3c2)cc2ncn(C3CCNCC3)c(=O)c12 [Compound 363, 2-methyl-6-[5-(methylamino)-4-oxo-3-(piperidin-4-yl)quinazolin-7-yl]imidazo[1,2-a]pyridine-8-carbonitrile] | > 10000
